Key:
[1] = test system: GCLM; assay: Western blot of GCLM protein expression in Raw 264.7 macrophages; format: cell-based, murine; details: Raw 264.7 cells, 5 μM, 18 hours
Experimental: (§1) Raw 264.7 cells, a murine macrophage cell line catalog no. TIB-71TM (ATCC, Manassas, Va.), were treated with NATx0 or NATx5 (5 μM) for 18 hours. Cells were lysed, and total protein concentration was measured with Pierce BCA assay (Thermo Fisher Scientific, Rockford, Ill.). For electrophoresis, 30 μg of protein was used in each line. The proteins were electrophoresed on a Tris/glycine SDS-polyacrylamide gradient gel (10-15%) and transferred to nitrocellulose membrane. The primary antibodies used for detection was rabbit polyclonal anti-HO-1 or anti-GCLM (Abcam, Cambridge, Mass.). Blots were visualized using horseradish peroxidase-conjugated secondary antibodies and ECL Plus detection system (GE Healthcare, Little Chalfont, UK). Blots were detected with a scanner. Protein expression was quantified with ImageQuant TL7.0 software (GE Healthcare, Little Chalfont, UK).

[2] = test system: HO-1; assay: Western blot of HO-1 protein expression in Raw 264.7 macrophages; format: cell-based, murine; details: Raw 264.7 cells, 5 μM, 18 hours
Experimental: as §1

[3] = test system: serum levels of IL-1β; assay: LPS-induced inflammatory response in C57BL/6 mice, serum IL-1β by ELISA; format: in vivo; details: 20 mg/kg i.p. 1 hour before 10 mg/kg LPS i.p., 2 hours after LPS
Experimental: In vivo testing was carried out in C57BL/6 mice. The mice were injected intraperitoneally (“i.p.”) with 20 mg/kg NATx0 or a control (DMSO) 1 hour before i.p. injection of 10 mg/kg LPS Escherichia coli 055:B5 (Sigma-Aldrich). After 2 hours the mice were killed, and serum levels of IL-1β were measured by ELISA to determine inflammatory response.

[4] = test system: RAW 264.7 cells; assay: Cytotoxicity in RAW 264.7 cells (MTT assay); format: cell-based, murine; details: Mus musculus, RAW264.7, 24 h treatment, read-out: IC50 (cell viability)
Experimental: FIG. 8 NATx0 cell cytotoxicity was evaluated in RAW 264.7 cells at 1, 5, 10, 50 and 100 μM in DMSO. Cells were treated for 24 h with NATx0 and then MTT assay was performed. The absorbance at 570 nm was measured for each condition by triplicate. The % cell liability was calculated using control group (DMSO, without treatment). The half maximal inhibitory concentration (IC50) was calculated after % cell viability was plotted against the concentration of NATx0 and fitted to an exponential function using OriginLab software (version 8.0).

[5] = test system: NF-κB/p65; assay: LPS-induced NF-κB/p65 nuclear translocation in THP-1 macrophages (immunofluorescence); format: cell-based; details: 10 uM, 2 hs before LPS (1 ug/mL)
From the text: Nuclear factor kappa B (NF-κB) represents a family of pro-inflammatory transcription factors, present in all eukaryotic cells, which regulate inducible expression of wide ranging genes involved in immune responses and cell-cycle regulation. Activation of NF-κB is accompanied by nuclear translocation of NF-κB. […] Specifically, FIG. 11 illustrates immunofluorescence and epifluorescence microscopy analysis showing the effect of NATx0 on LPS-induced NF-κB/p65 subcellular localization in THP-1 macrophages.

[6] = Stability in polyethylene glycol 300-400 at 37° C.; format: physicochemical; details: PEG 300 to PEG 400, 37° C., two weeks, RP-HPLC
Experimental: FIG. 10 presents the incubation of NATx0 incubated in PEG 300 to PEG 400 at 37° C. for two weeks. At each time point, an aliquot was extracted with methanol and analyzed by reverse phase chromatography as before. After two weeks in 37° C. in PEG, 50% of the initial concentration of NATx0 was recovered.

[7] = test system: NLRP3 inflammasome; assay: NLRP3 inflammasome activation in THP-1 macrophages, IL-1β by ELISA; format: cell-based
Experimental: (§2) FIGS. 6A and 6B illustrate the effect of NATx0 on cell viability and NLRP3 inflammasome activation. THP-1 cells were differentiated into macrophages (PMA 200 nM, 48 hours). […] The cells were treated with NATx0 at 0.5 μM, 1.0 μM, 2.5 μM, 5.0 μM, 10 μM and 20 μM concentrations together with the first signal or the second signal. Cell viability was measured by MTT assay. Supernatant was stored.
In FIGS. 7A and 7B, supernatant stored from the previously described experiment were measured for IL-1β by ELISA.
(§3) At the first signal, we only observed a full inhibition of the inflammasome at 20 μM.

[8] = Michael adduct formation with glutathione (UV-visible spectra, stopped-flow kinetics); format: physicochemical; details: 25 μM compound, absorbance at 260 nm, 25° C.
Experimental: In FIG. 3, 130 μM NATx0 was incubated with 2 mM Glutathione (Sigma) in 100 mM pH 7 phosphate buffer. UV-visible spectra was acquired by a Varian Cary 50 Bio. Scans were taken every min up to 15 min.
(§4) FIG. 4 illustrates a second order rate constant of the reaction between NATx0 and GSH. Stopped-flow kinetic measurements were performed using a Rx 2000 stopped flow analyzer (Applied Photophysics). Mixutres of 150 μL NATx0 (25 μM) and solutions of BME at 0.54 mM, 1.09 mM, 1.64 mM, 2.18 mM, and 2.73 mM concentrations.

[9] = Michael adduct formation with β-mercaptoethanol (UV-visible spectra, stopped-flow kinetics); format: physicochemical; details: 25 μM compound, BME 0.54-2.73 mM, absorbance at 260 nm, 25° C.
Experimental: UV-visible spectra was acquired by a Varian Cary 50 Bio. Scans were taken every min up to 15 min.
as §4, with “In FIG.” for “FIG.”, “2, it is shown that” for “4 illustrates a second order rate constant of”, “BME was determined to be a second order rate constant.” for “GSH.”

[10] = test system: THP-1 cells; assay: Cell viability (MTT) of THP-1 macrophages stimulated with LPS and ATP; format: cell-based; details: THP-1 macrophages activated by LPS or ATP, compound 0.5-20 μM together with first or second signal
Experimental: as §2, §3

Structure (SMILES) | GCLM protein expression [1] | HO-1 protein expression [2] | inflammatory response (serum IL-1β) [3] | IC50 [4] [µM] | LPS-induced NF-κB/p65 nuclear translocation [5] | initial concentration recovered [6] [%] | concentration giving full inhibition of the inflammasome ([7]; compound applied together with the first signal (LPS 250 ng/mL, 3 hours)) [µM] | concentration at which NLRP3 inflammasome activation is already inhibited ([7]; compound applied together with the second inflammasome-activating signal) [µM] | inhibition of inflammasome activation (IL-1β) ([7]; compound applied together with the second signal (ATP 5 mM, 45 minutes), 0.5-20 μM) | second order rate constant of the reaction with GSH [8] [M⁻¹ s⁻¹] | second order rate constant of the reaction with BME [9] [M⁻¹ s⁻¹] | cell mortality (cell viability by MTT) [10]
CCC/C(=C\C1(C)CCc2c(C)c(O)c(C)c(C)c2O1)[N+](=O)[O-] (racemic) [NATx5, (±)-2,5,7,8-tetramethyl-2-[(E)-2-nitropent-1-en-1-yl]chroman-6-ol] | induced the expression | induced the expression |  |  |  |  |  |  |  |  |  | 
Cc1c(C)c2c(c(C)c1O)CCC(C)(/C=C/[N+](=O)[O-])O2 (racemic) [NATx0, (±)-2,5,7,8-tetramethyl-2-[(E)-2-nitrovinyl]chroman-6-ol] | induced the expression | induced the expression | did not increase | 24 | no change from the negative control | 50 | 20 | 5 | inhibited inflammasome activation in dose dependent manner | 23.45 | 23.45 | does not induce an increase in cell mortality
